# Key:
# Test in all cases: cells
# [1] = test system: LC4-1; format: functional, cell-based, Homo sapiens; settings: Homo sapiens, LC4-1;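 also: growth inhibition of LC4-1 cells, read out with a cell viability assay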
# Description: SANGER: Inhibition of human LC4-1 cell growth in a cell viability assay.
# [2] = test system: MDA-MB-415; format: functional, cell-based, Homo sapiens; settings: Homo sapiens, MDA-MB-415
# [3] = test system: COLO-680N; format: functional, cell-based, Homo sapiens; settings: Homo sapiens, COLO-680N;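 also: cell viability assay used to measure inhibition of COLO-680N cell growth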
# Description: SANGER: Inhibition of human COLO-680N cell growth in a cell viability assay.
# [4] = test system: NCI-H1651; format: functional, cell-based, Homo sapiens; settings: Homo sapiens, NCI-H1651;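 also: Read-out is a cell viability assay, with IC50 expressing inhibition of NCI-H1651 cell growth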
# Description: SANGER: Inhibition of human NCI-H1651 cell growth in a cell viability assay.
# [5] = test system: HT-3; format: functional, cell-based, Homo sapiens; settings: Homo sapiens, HT-3;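 also: growth inhibition measured with a cell viability readout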
# Description: SANGER: Inhibition of human HT-3 cell growth in a cell viability assay.
# [6] = test system: OPM-2; format: functional, cell-based, Homo sapiens; settings: Homo sapiens, OPM-2;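 also: growth of OPM-2 cells measured with a viability assay, IC50 for suppression of proliferation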
# Description: SANGER: Inhibition of human OPM-2 cell growth in a cell viability assay.
# [7] = test system: SNU-449; format: functional, cell-based, Homo sapiens; settings: Homo sapiens, SNU-449
# Description: SANGER: Inhibition of human SNU-449 cell growth in a cell viability assay.
# [8] = test system: JEG-3; format: functional, cell-based, Homo sapiens; settings: Homo sapiens, JEG-3;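 also: growth inhibition of human JEG-3 cells, read out with a cell viability assay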
# Description: SANGER: Inhibition of human JEG-3 cell growth in a cell viability assay.
# [9] = test system: HSC-3; format: functional, cell-based, Homo sapiens; settings: Homo sapiens, HSC-3
# Description: SANGER: Inhibition of human HSC-3 cell growth in a cell viability assay.
# [10] = test system: OVCAR-3; format: functional, cell-based, Homo sapiens; settings: Homo sapiens, OVCAR-3;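 also: growth inhibition of human OVCAR-3 cells, determined by a cell viability assay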
# Description: SANGER: Inhibition of human OVCAR-3 cell growth in a cell viability assay.
# [11] = test system: TALL-1; format: functional, cell-based, Homo sapiens; settings: Homo sapiens, TALL-1;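 also: growth inhibition of cultured human TALL-1 cells, read out by a cell viability assay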
# Description: SANGER: Inhibition of human TALL-1 cell growth in a cell viability assay.
# [12] = test system: H4; format: functional, cell-based, Homo sapiens; settings: Homo sapiens, H4
# Description: SANGER: Inhibition of human H4 cell growth in a cell viability assay.
# [13] = test system: 647-V; format: functional, cell-based, Homo sapiens; settings: Homo sapiens, 647-V;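 also: growth inhibition of 647-V cells, read out with a cell viability assay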
# Description: SANGER: Inhibition of human 647-V cell growth in a cell viability assay.
# [14] = test system: NB1; format: functional, cell-based, Homo sapiens; settings: Homo sapiens, NB1;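 also: reduction of NB1 cell proliferation, read out with a viability assay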
# Description: SANGER: Inhibition of human NB1 cell growth in a cell viability assay.
# [15] = test system: HMV-2 cell line; format: functional, cell-based, Homo sapiens; settings: Homo sapiens, HMV-2;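 also: growth inhibition of HMV-II cells, read out with a cell viability assay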
# Description: SANGER: Inhibition of human HMV-II cell growth in a cell viability assay.
# [16] = test system: KP-4; format: functional, cell-based, Homo sapiens; settings: Homo sapiens, KP-4;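 also: human KP-4 cells, with growth inhibition read out through a cell viability assay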
# Description: SANGER: Inhibition of human KP-4 cell growth in a cell viability assay.
# [17] = test system: NCI-H1436; format: functional, cell-based, Homo sapiens; settings: Homo sapiens, NCI-H1436;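 also: growth suppression of human NCI-H1436 cells, determined with a cell viability readout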
# Description: SANGER: Inhibition of human NCI-H1436 cell growth in a cell viability assay.
# [18] = test system: MEL-JUSO; format: functional, cell-based, Homo sapiens; settings: Homo sapiens, MEL-JUSO;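 also: growth inhibition of human MEL-JUSO cells, read out with a cell viability assay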
# Description: SANGER: Inhibition of human MEL-JUSO cell growth in a cell viability assay.
# [19] = test system: RPMI-6666; format: functional, cell-based, Homo sapiens; settings: Homo sapiens, RPMI-6666
# Description: SANGER: Inhibition of human RPMI-6666 cell growth in a cell viability assay.
# [20] = test system: SIMA; format: functional, cell-based, Homo sapiens; settings: Homo sapiens, SIMA;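 also: growth inhibition of SIMA cells, measured with a cell viability readout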
# Description: SANGER: Inhibition of human SIMA cell growth in a cell viability assay.
# [21] = test system: A2780; format: functional, cell-based, Homo sapiens; settings: Homo sapiens, A2780;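 also: growth inhibition of A2780 cells, read out with a cell viability assay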
# Description: SANGER: Inhibition of human A2780 cell growth in a cell viability assay.
# [22] = test system: NCI-H460; format: functional, cell-based, Homo sapiens; settings: Homo sapiens, NCI-H460;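 also: cell viability assay scoring growth inhibition of human NCI-H460 cells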
# Description: SANGER: Inhibition of human NCI-H460 cell growth in a cell viability assay.
# [23] = test system: CWR22R; format: functional, cell-based, Homo sapiens; settings: Homo sapiens, 22Rv1;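 also: growth inhibition of 22Rv1 cells, read out with a cell viability assay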
# Description: SANGER: Inhibition of human 22RV1 cell growth in a cell viability assay.
# [24] = test system: MKN-1; format: functional, cell-based, Homo sapiens; settings: Homo sapiens, MKN-1;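 also: growth inhibition of human MKN1 cells, read out by a cell viability measurement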
# Description: SANGER: Inhibition of human MKN1 cell growth in a cell viability assay.
# [25] = test system: NCI-H810; format: functional, cell-based, Homo sapiens; settings: Homo sapiens, NCI-H810;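 also: IC50 reflects inhibition of cancer cell line growth, read out with a cell viability assay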
# Description: SANGER: Inhibition of human NCI-H810 cell growth in a cell viability assay.
# [26] = test system: NCI-H727; format: functional, cell-based, Homo sapiens; settings: Homo sapiens, NCI-H727;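 also: growth inhibition of human NCI-H727 cells, read out with a cell viability assay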
# Description: SANGER: Inhibition of human NCI-H727 cell growth in a cell viability assay.
# [27] = test system: EFO-21; format: functional, cell-based, Homo sapiens; settings: Homo sapiens, EFO-21;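 also: growth inhibition of EFO-21 cells measured with a viability assay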
# Description: SANGER: Inhibition of human EFO-21 cell growth in a cell viability assay.
# [28] = test system: U2OS; format: functional, cell-based, Homo sapiens, U-2-OS; settings: Homo sapiens, U2OS;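 also: growth inhibition of human U-2-OS cells, determined with a cell viability assay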
# Description: SANGER: Inhibition of human U-2-OS cell growth in a cell viability assay.
# [29] = test system: RL; format: functional, cell-based, Homo sapiens; settings: Homo sapiens, RL
# Description: SANGER: Inhibition of human RL cell growth in a cell viability assay.
# [30] = test system: CaR-1; format: functional, cell-based, Homo sapiens; settings: Homo sapiens, CaR-1;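 also: growth inhibition of human CaR-1 cancer cells, read out with a cell viability assay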
# Description: SANGER: Inhibition of human CaR-1 cell growth in a cell viability assay.
# [31] = test system: UACC-812; format: functional, cell-based, Homo sapiens; settings: Homo sapiens, UACC-812
# Description: SANGER: Inhibition of human UACC-812 cell growth in a cell viability assay.
# [32] = test system: DG-75; format: functional, cell-based, Homo sapiens; settings: Homo sapiens, DG-75;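 also: growth inhibition of DG-75 cells, read out with a cell viability assay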
# Description: SANGER: Inhibition of human DG-75 cell growth in a cell viability assay.
# [33] = test system: RO82-W-1; format: functional, cell-based, Homo sapiens; settings: Homo sapiens, RO82-W-1;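 also: growth inhibition of human RO82-W-1 cells, measured with a cell viability assay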
# Description: SANGER: Inhibition of human RO82-W-1 cell growth in a cell viability assay.
# [34] = test system: MG-63; format: functional, cell-based, Homo sapiens; settings: Homo sapiens, MG-63;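 also: growth inhibition of human MG-63 cells, read out with a cell viability assay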
# Description: SANGER: Inhibition of human MG-63 cell growth in a cell viability assay.
# [35] = test system: HT55; format: functional, cell-based, Homo sapiens; settings: Homo sapiens, HT55;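 also: cell viability readout measuring growth inhibition of human HT55 cells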
# Description: SANGER: Inhibition of human HT55 cell growth in a cell viability assay.
# [36] = test system: RVH-421; format: functional, cell-based, Homo sapiens; settings: Homo sapiens, RVH-421
# Description: SANGER: Inhibition of human RVH-421 cell growth in a cell viability assay.
# [37] = test system: SW1990; format: functional, cell-based, Homo sapiens; settings: Homo sapiens, SW1990;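 also: cell growth inhibition determined with a viability assay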
# Description: SANGER: Inhibition of human SW1990 cell growth in a cell viability assay.
# [38] = test system: G-401; format: functional, cell-based, Homo sapiens; settings: Homo sapiens, G-401
# Description: SANGER: Inhibition of human G-401 cell growth in a cell viability assay.
# [39] = test system: CAL-62; format: functional, cell-based, Homo sapiens; settings: Homo sapiens, CAL-62;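 also: growth inhibition of CAL-62 cells, read out with a cell viability assay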
# Description: SANGER: Inhibition of human CAL-62 cell growth in a cell viability assay.
# [40] = test system: MC-IXC; format: functional, cell-based, Homo sapiens; settings: Homo sapiens, MC-IXC;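 also: growth inhibition of MC-IXC cells, read out with a cell viability assay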
# Description: SANGER: Inhibition of human MC-IXC cell growth in a cell viability assay.
# [41] = test system: LCLC-103H cell line; format: functional, cell-based, Homo sapiens; settings: Homo sapiens, LCLC-103H
# Description: SANGER: Inhibition of human LCLC-103H cell growth in a cell viability assay.
# [42] = test system: NCI-H524; format: functional, cell-based, Homo sapiens; settings: Homo sapiens, NCI-H524;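 also: growth inhibition of human NCI-H524 cells, read out through a cell viability assay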
# Description: SANGER: Inhibition of human NCI-H524 cell growth in a cell viability assay.
# [43] = test system: L-540; format: functional, cell-based, Homo sapiens; settings: Homo sapiens, L-540;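 also: growth inhibition of the human L-540 cell line, read out with a viability assay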
# Description: SANGER: Inhibition of human L-540 cell growth in a cell viability assay.
# [44] = test system: KYSE-70 cell line; format: functional, cell-based, Homo sapiens; settings: Homo sapiens, KYSE-70;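 also: cell viability assay read-out, with IC50 expressing suppression of KYSE-70 cell growth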
# Description: SANGER: Inhibition of human KYSE-70 cell growth in a cell viability assay.
# [45] = test system: Daudi; format: functional, cell-based, Homo sapiens; settings: Homo sapiens, Daudi;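 also: growth inhibition of Daudi cells, read out by a viability assay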
# Description: SANGER: Inhibition of human Daudi cell growth in a cell viability assay.
# [46] = test system: CPC-N; format: functional, cell-based, Homo sapiens; settings: Homo sapiens, CPC-N;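 also: growth inhibition of CPC-N cells, with a cell viability assay as the readout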
# Description: SANGER: Inhibition of human CPC-N cell growth in a cell viability assay.
# [47] = test system: LK-2; format: functional, cell-based, Homo sapiens; settings: Homo sapiens, LK-2;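 also: growth inhibition of LK-2 cells, read out with a viability assay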
# Description: SANGER: Inhibition of human LK-2 cell growth in a cell viability assay.
smiles,measurement,setting,value
N#Cc1c(O)c2c(-c3ccc(-c4ccccc4O)cc3)csc2[nH]c1=O,IC50,[1],563 nM
same,IC50,[2],> 1020 nM
same,IC50,[3],> 1020 nM
same,IC50,[4],> 1020 nM
same,IC50,[5],> 1020 nM
same,IC50,[6],218 nM
same,IC50,[7],> 1020 nM
same,IC50,[8],> 1020 nM
same,IC50,[9],> 1020 nM
same,IC50,[10],> 1020 nM
same,IC50,[11],> 1020 nM
same,IC50,[12],> 1020 nM
same,IC50,[13],> 1020 nM
same,IC50,[14],> 1020 nM
same,IC50,[15],> 1020 nM
same,IC50,[16],> 1020 nM
same,IC50,[17],590 nM
same,IC50,[18],> 1020 nM
same,IC50,[19],68 nM
same,IC50,[20],> 1020 nM
same,IC50,[21],> 1020 nM
same,IC50,[22],> 1020 nM
same,IC50,[23],> 1020 nM
same,IC50,[24],> 1020 nM
same,IC50,[25],> 1020 nM
same,IC50,[26],> 1020 nM
same,IC50,[27],> 1020 nM
same,IC50,[28],> 1020 nM
same,IC50,[29],> 1020 nM
same,IC50,[30],> 1020 nM
same,IC50,[31],> 1020 nM
same,IC50,[32],> 1020 nM
same,IC50,[33],> 1020 nM
same,IC50,[34],> 1020 nM
same,IC50,[35],> 1020 nM
same,IC50,[36],> 1020 nM
same,IC50,[37],> 1020 nM
same,IC50,[38],> 1020 nM
same,IC50,[39],> 1020 nM
same,IC50,[40],> 1020 nM
same,IC50,[41],> 1020 nM
same,IC50,[42],> 1020 nM
same,IC50,[43],848 nM
same,IC50,[44],> 1020 nM
same,IC50,[45],49.8 nM
same,IC50,[46],> 1020 nM
same,IC50,[47],> 1020 nM
C=C(c1ccc(C(=O)O)cc1)c1cc2c(cc1C)C(C)(C)CCC2(C)C [BEXAROTENE],IC50,[1],> 8000 nM
same,IC50,[2],> 8000 nM
same,IC50,[3],> 8000 nM
same,IC50,[4],> 8000 nM
same,IC50,[5],> 8000 nM
same,IC50,[6],> 8000 nM
same,IC50,[7],> 8000 nM
same,IC50,[8],> 8000 nM
same,IC50,[9],> 8000 nM
same,IC50,[10],> 8000 nM
same,IC50,[11],> 8000 nM
same,IC50,[12],> 8000 nM
same,IC50,[13],> 8000 nM
same,IC50,[14],> 8000 nM
same,IC50,[15],> 8000 nM
same,IC50,[17],> 8000 nM
same,IC50,[18],> 8000 nM
same,IC50,[19],> 8000 nM
same,IC50,[20],> 8000 nM
same,IC50,[21],> 8000 nM
same,IC50,[22],> 8000 nM
same,IC50,[23],> 8000 nM
same,IC50,[24],> 8000 nM
same,IC50,[25],> 8000 nM
same,IC50,[26],> 8000 nM
same,IC50,[27],> 8000 nM
same,IC50,[28],> 8000 nM
same,IC50,[29],> 8000 nM
same,IC50,[30],> 8000 nM
same,IC50,[31],> 8000 nM
same,IC50,[32],> 8000 nM
same,IC50,[33],> 8000 nM
same,IC50,[34],789 nM
same,IC50,[35],> 8000 nM
same,IC50,[36],> 8000 nM
same,IC50,[37],> 8000 nM
same,IC50,[38],> 8000 nM
same,IC50,[39],> 8000 nM
same,IC50,[40],7970 nM
same,IC50,[41],> 8000 nM
same,IC50,[42],> 8000 nM
same,IC50,[43],> 8000 nM
same,IC50,[44],> 8000 nM
same,IC50,[45],> 8000 nM
same,IC50,[46],> 8000 nM
same,IC50,[47],> 8000 nM
Nc1ccn([C@@H]2O[C@H](CO)[C@@H](O)C2(F)F)c(=O)n1 [GEMCITABINE],IC50,[1],74.7 nM
same,IC50,[2],> 1020 nM
same,IC50,[3],75.5 nM
same,IC50,[4],21.1 nM
same,IC50,[5],201 nM
same,IC50,[6],> 1020 nM
same,IC50,[7],13.8 nM
same,IC50,[8],277 nM
same,IC50,[9],1.91 nM
same,IC50,[10],> 1020 nM
same,IC50,[11],> 1020 nM
same,IC50,[12],2.18 nM
same,IC50,[13],< 4 nM
same,IC50,[14],488 nM
same,IC50,[15],24.3 nM
same,IC50,[17],> 1020 nM
same,IC50,[18],< 4 nM
same,IC50,[19],< 4 nM
same,IC50,[20],161 nM
same,IC50,[21],< 4 nM
same,IC50,[22],13.5 nM
same,IC50,[23],96.5 nM
same,IC50,[24],78.4 nM
same,IC50,[25],8.56 nM
same,IC50,[26],2.51 nM
same,IC50,[27],53.7 nM
same,IC50,[28],> 1020 nM
same,IC50,[29],> 1020 nM
same,IC50,[30],551 nM
same,IC50,[31],> 1020 nM
same,IC50,[32],> 1020 nM
same,IC50,[33],> 1020 nM
same,IC50,[34],1.33 nM
same,IC50,[35],> 1020 nM
same,IC50,[36],> 1020 nM
same,IC50,[37],113 nM
same,IC50,[38],55.2 nM
same,IC50,[39],1.22 nM
same,IC50,[40],2.26 nM
same,IC50,[41],33.3 nM
same,IC50,[42],> 1020 nM
same,IC50,[43],1.6 nM
same,IC50,[44],300 nM
same,IC50,[45],569 nM
same,IC50,[46],329 nM
same,IC50,[47],> 1020 nM
